US4130648A, “5-Fluorouracil derivatives and antitumor preparations containing the same” (Eisai Co., Ltd., priority 1976, dated 1978)
Where two headings read alike, the source gives them in different places.

Columns and labels:
[1] = Acute toxicity, LD50 after three weeks observation; assay type: in vivo, mice (CDF1, female); details: mouse, in vivo, CDF1 mice, three weeks observation
Source text: (§1) LD50 (mg/Kg) after three weeks observation in CDF1 mice (female, 8-10 weeks old)

[2] = system: CDF1 mice; assay: Acute toxicity, LD50 after three weeks observation; assay type: in vivo, female); details: from Table 1, compared with FT-207 and 5-FU
Source text: as §1

[3] = system: Sarcoma-180 (S-180); assay: Inhibitory effect on the growth of S-180 ascites form (TPCV); assay type: in vivo, mice (ICR/JCL, female); details: for Tumor growth (TPCV : T/C %): i.p., 24 hours after implantation, day 10; for ED50: Mus musculus, ip, 240 h; for ED50 / safety index (LD50 /ED50): S-180 ascites form, from Tables 1 and 2
Experimental: 2. Antitumor activity against Sarcoma-180 (S-180)
(1) Inhibitory effect on the growth of S-180 ascites form (Intraperitoneal administration)
10^6 cells of S-180 were intraperitoneally implanted in ICR/JCL mice (female, 8-10 weeks old).
Compound A was administered as a solution of soybean oil and 5-FU was administered as saline solution, at 24 hours after the implantation.
Soybean oil was administered as control for the Compound A. Saline solution was administered as control for 5-FU.
Ten days after the implantation of the tumor cells, the total packed cell volumes (TPCV) were measured. The measurement of TPCV was carried out in accordance with Hoshi, A. et al., Chemical & Pharmaceutical Bulletion 17 (4), 848-850 (1969). The results are shown in Table 2, wherein T/C % means the ratio of the TPCV of the test groups to that of the control group.

[4] = system: Sarcoma-180 (S-180); assay: Survival effect, S-180; assay type: in vivo, mice (ICR/JCL, female); details: for ILS (%) over control / Mean survival days: 24 hours after implantation
Experimental: 10^6 cells of S-180 were intraperitoneally implanted in ICR/JCL mouse (female, 6-8 weeks old).
Compound A was administered as a solution of soybean oil at 24 hours after the implantation.
Soybean oil was administered as control for Compound A.
Survival days after implantation was measured. The increase in life-span over control groups (ILS = T/C % - 100) was calculated.

[5] = system: Sarcoma-180 (S-180); assay: Effect on growth of solid tumor by oral administration, S-180; assay type: in vivo, mice (ICR/JCL, female); details: for Tumor growth (weight : T/C %): 3 hours after implantation, 20 days after; for minimal effective dose: Mus musculus, 480 h, read-out: minimum effective dose
Experimental: (3) Effect on growth of solid tumor by oral administration
1.8 × 10^6 cells of S-180 were implanted subcutaneously in ICR/JCL mice (female, 6-8 weeks old).
Each of the drugs was orally administered as a solution of safflower oil 3 hours after the implantation.
Safflower oil was administered as control for each of the drugs.
Twenty days after, the tumor weight was measured, and the ratio of the tumor weight to that of the control group (T/C %) was calculated.

[6] = system: L-1210 leukemia; assay: Survival effect, L-1210 leukemia; assay type: in vivo, mice (CDF1, female); details: for ILS % over controls / Mean survival days: 24 hours after implantation
Experimental: 3. Antitumor activity on L-1210 leukemia
10^5 cells of L-1210 leukemia were intraperitoneally implanted in CDF1 mice (female, 8-10 weeks old). […]
MCT was administered as control for Compound A.
Mean survival time after the implantation was determined, and the increase in life-span (ILS) over controls was calculated.

[7] = system: L-1210 leukemia; assay: Duration of antitumor activity, L-1210 leukemia; assay type: in vivo, mice (CDF1, female)
Source text: (2) Duration of antitumor activity
10^5 cells of L-1210 leukemia were intraperitoneally implanted in the mice.
Survival days after the implantation were counted.

[8] = clinical background; cited from earlier work
[9] = ip, intraperitoneal administration
[10] = sc, subcutaneous administration

Cc1c(C)c2c(c(C)c1OC(=O)n1cc(F)c(=O)[nH]c1=O)CCC(C)(CCCC(C)CCCC(C)CCCC(C)C)O2 (racemic) [Compound A, N1-d,l-α-tocopheryl carbonyl-5-fluorouracil]
LD50 at 504 h [1, 9]: > 4000 mg/kg
LD50 at 504 h [1, 10]: > 4000 mg/kg
LD50 at 504 h ([1]; oral administration): > 4000 mg/kg
acute toxicity [2]: lower acute toxicity than FT-207 and 5-FU
Tumor growth (TPCV : T/C %) ([3]; 62 mg/Kg): 77.5%
Tumor growth (TPCV : T/C %) ([3]; 125 mg/Kg): 64.7%
Tumor growth (TPCV : T/C %) ([3]; 250 mg/Kg): 30.4%
Tumor growth (TPCV : T/C %) ([3]; 500 mg/Kg): 3.3%
Tumor growth (TPCV : T/C %) ([3]; 1000 mg/Kg): 0%
Tumor growth (TPCV : T/C %) ([3]; 2000 mg/Kg): 0%
Tumor growth (TPCV : T/C %) ([3]; 4000 mg/Kg): 0%
ED50 [3]: ~170 mg/kg
safety index (LD50 /ED50) [3]: more than 24
toxicity as an antitumor agent ([3]; compared with 5-FU): less toxic
ILS (%) over control ([4]; 500 mg/Kg): 139.1%
Mean survival days ([4]; 500 mg/Kg): 33.0 days
ILS (%) over control ([4]; 1000 mg/Kg): 215.2%
Mean survival days ([4]; 1000 mg/Kg): 43.5 days
ILS (%) over control ([4]; 2000 mg/Kg): 160.9%
Mean survival days ([4]; 2000 mg/Kg): 36.0 days
ILS (%) over control ([4]; 4000 mg/Kg): 182.6%
Mean survival days ([4]; 4000 mg/Kg): 39.0 days
survival effect ([4]; single administration of 1/8 LD50): marked effect
Tumor growth (weight : T/C %) ([5]; 62 mg/Kg oral): 106%
Tumor growth (weight : T/C %) ([5]; 125 mg/Kg oral): 87%
Tumor growth (weight : T/C %) ([5]; 250 mg/Kg oral): 33%
Tumor growth (weight : T/C %) ([5]; 500 mg/Kg oral): 47%
Tumor growth (weight : T/C %) ([5]; 1000 mg/Kg oral): 38%
Tumor growth (weight : T/C %) ([5]; 2000 mg/Kg oral): 36%
minimal effective dose ([5]; S-180, po): ~250 mg/kg
availability ([5]; compared with FT-207 and 5-FU): higher than those of the other two drugs
ratio of the minimum effective dose to toxic dose (LD50) ([5]; oral, S-180 solid tumor): less than 1/16
ILS % over controls ([6]; 125 mg/Kg i.p. in MCT): 0%
Mean survival days ([6]; 125 mg/Kg i.p. in MCT): 7.0 days
ILS % over controls ([6]; 250 mg/Kg i.p. in MCT): 14%
Mean survival days ([6]; 250 mg/Kg i.p. in MCT): 8.0 days
ILS % over controls ([6]; 500 mg/Kg i.p. in MCT): 40%
Mean survival days ([6]; 500 mg/Kg i.p. in MCT): 9.8 days
ILS % over controls ([6]; 1000 mg/Kg i.p. in MCT): 73%
Mean survival days ([6]; 1000 mg/Kg i.p. in MCT): 12.1 days
ILS % over controls ([6]; 2000 mg/Kg i.p. in MCT): 79%
Mean survival days ([6]; 2000 mg/Kg i.p. in MCT): 12.5 days
ILS % over controls ([6]; 4000 mg/Kg i.p. in MCT): 93%
Mean survival days ([6]; 4000 mg/Kg i.p. in MCT): 13.5 days
availability ([6]; compared with 5-FU): higher than that of 5-FU
ratio of dose (corresponding ILS) to LD50, compared with 5-FU ([6]; compared with 5-FU): smaller than that of 5-FU
effectiveness ([6]; dose of about 1/8 LD50): effective
Mean survival days ([7]; 1000 mg/Kg i.p. in MCT, 0 days before tumor implantation): 11.6 days
Mean survival days ([7]; 1000 mg/Kg i.p. in MCT, 1 day before tumor implantation): 13.0 days
Mean survival days ([7]; 1000 mg/Kg i.p. in MCT, 2 days before tumor implantation): 16.4 days
Mean survival days ([7]; 1000 mg/Kg i.p. in MCT, 3 days before tumor implantation): 11.8 days
Mean survival days ([7]; 1000 mg/Kg i.p. in MCT, 4 days before tumor implantation): 11.2 days
Mean survival days ([7]; 1000 mg/Kg i.p. in MCT, 6 days before tumor implantation): 13.5 days
duration of antitumor effects ([7]; from Table 6): 6 days
survival effects ([7]; same day of implantation, or 1-6 days prior to the implantation): exhibits survival effects

O=c1[nH]cc(F)c(=O)[nH]1 [Example 5-FU, 5-fluorouracil]
LD50 at 504 h [1, 9]: 150 mg/kg
LD50 at 504 h [1, 10]: 175 mg/kg
LD50 at 504 h ([1]; intravenous administration): 135 mg/kg
LD50 at 504 h ([1]; oral administration): 120 mg/kg
Tumor growth (TPCV : T/C %) ([3]; 34 mg/Kg): 43.3%
Tumor growth (TPCV : T/C %) ([3]; 68 mg/Kg): 26.4%
Tumor growth (TPCV : T/C %) ([3]; 125 mg/Kg): 4.3%
Tumor growth (TPCV : T/C %) ([3]; 250 mg/Kg): died
Tumor growth (TPCV : T/C %) ([3]; 500 mg/Kg): died
ED50 [3]: ~25 mg/kg
safety index (LD50 /ED50) [3]: about 5
Tumor growth (weight : T/C %) ([5]; 10 mg/Kg oral): 156%
Tumor growth (weight : T/C %) ([5]; 20 mg/Kg oral): 55%
Tumor growth (weight : T/C %) ([5]; 40 mg/Kg oral): 52%
Tumor growth (weight : T/C %) ([5]; 80 mg/Kg oral): 63%
minimal effective dose ([5]; S-180, po): ~20 mg/kg
ratio of the minimum effective dose to toxic dose (LD50) ([5]; oral, S-180 solid tumor): about 1/6
ILS % over controls ([6]; 15 mg/Kg i.p. in saline): 15%
Mean survival days ([6]; 15 mg/Kg i.p. in saline): 8.1 days
ILS % over controls ([6]; 30 mg/Kg i.p. in saline): 25%
Mean survival days ([6]; 30 mg/Kg i.p. in saline): 8.8 days
ILS % over controls ([6]; 60 mg/Kg i.p. in saline): 38%
Mean survival days ([6]; 60 mg/Kg i.p. in saline): 9.7 days
Mean survival days ([7]; 50 mg/Kg i.p. in saline, 1 day before tumor implantation): 9.0 days
Mean survival days ([7]; 50 mg/Kg i.p. in saline, 2 days before tumor implantation): 9.0 days
Mean survival days ([7]; 50 mg/Kg i.p. in saline, 4 days before tumor implantation): 8.8 days
toxicity at the effective dosage [8]: relatively severe toxicity

O=c1[nH]c(=O)n(C2CCCO2)cc1F (stereo not drawn) [FT-207, reference compound]
Tumor growth (weight : T/C %) ([5]; 25 mg/Kg oral): 148%
Tumor growth (weight : T/C %) ([5]; 50 mg/Kg oral): 269%
Tumor growth (weight : T/C %) ([5]; 100 mg/Kg oral): 58%
Tumor growth (weight : T/C %) ([5]; 200 mg/Kg oral): 43%
Tumor growth (weight : T/C %) ([5]; 400 mg/Kg oral): 34%
minimal effective dose ([5]; oral, S-180 solid tumor, from Table 4): ~100 mg/kg
ILS % over controls ([6]; 50 mg/Kg i.p. in saline): 0%
Mean survival days ([6]; 50 mg/Kg i.p. in saline): 7.0 days
ILS % over controls ([6]; 200 mg/Kg i.p. in saline): 1%
Mean survival days ([6]; 200 mg/Kg i.p. in saline): 7.1 days
effectiveness ([6]; dose of about 1/4 LD50): it cannot be confirmed that FT-207 is effective
Mean survival days ([7]; 200 mg/Kg i.p. in saline, 1 day before tumor implantation): 8.8 days
Mean survival days ([7]; 200 mg/Kg i.p. in saline, 2 days before tumor implantation): 9.0 days
Mean survival days ([7]; 200 mg/Kg i.p. in saline, 4 days before tumor implantation): 9.0 days
